Results taken from the NIST ThermoML archive (doi:10.1016/j.jct.2012.07.022).

Test: wn = mass fraction of the nth substance listed
Conditions: 101 kPa, Liquid; for electrical conductivity: Alternating current cell with electrodes; for viscosity: Capillary tube (Ostwald / Ubbelohde) method; for mass density: Vibrating tube method

O=c1cc[nH]c(=O)[nH]1 [2,4(1H,3H)-pyrimidinedione] + CC(=O)[O-].CCn1cc[n+](C)c1
Conditions | electrical conductivity [S/m] | mass density [kg/m3] | viscosity [mPa·s]
298.15 K, w2 = 0 | 0.296 | 1097.6 | 128.5
298.15 K, w2 = 0.0486 | 0.221 | 1111 | 190.6
298.15 K, w2 = 0.1019 | 0.159 | 1125 | 294
298.15 K, w2 = 0.1471 | 0.11 | 1135.7 | 437.6
298.15 K, w2 = 0.2029 | 0.0807 | 1148.6 | 682.8
298.15 K, w2 = 0.2505 | 0.0585 | 1157.9 | 1010
298.15 K, w2 = 0.298 | 0.0388 | 1166.8 | 1589
303.15 K, w2 = 0 | 0.382 | 1094.5 | 95.23
303.15 K, w2 = 0.0486 | 0.293 | 1107.9 | 136.6
303.15 K, w2 = 0.1019 | 0.214 | 1122 | 204
303.15 K, w2 = 0.1471 | 0.156 | 1132.5 | 293.1
303.15 K, w2 = 0.2029 | 0.117 | 1145.2 | 441.4
303.15 K, w2 = 0.2505 | 0.0878 | 1154.6 | 630.8
303.15 K, w2 = 0.298 | 0.0602 | 1163.7 | 952.6
308.15 K, w2 = 0 | 0.48 | 1091.4 | 72.42
308.15 K, w2 = 0.0486 | 0.38 | 1104.9 | 100.9
308.15 K, w2 = 0.1019 | 0.288 | 1118.9 | 146.4
308.15 K, w2 = 0.1471 | 0.212 | 1129.3 | 204.2
308.15 K, w2 = 0.2029 | 0.163 | 1141.9 | 297.8
308.15 K, w2 = 0.2505 | 0.125 | 1151.2 | 413.1
308.15 K, w2 = 0.298 | 0.0892 | 1160.5 | 602.2
313.15 K, w2 = 0 | 0.594 | 1088.4 | 56.38
313.15 K, w2 = 0.0486 | 0.48 | 1101.8 | 76.6
313.15 K, w2 = 0.1019 | 0.372 | 1115.8 | 108.2
313.15 K, w2 = 0.1471 | 0.281 | 1126.2 | 147.1
313.15 K, w2 = 0.2029 | 0.221 | 1138.8 | 208.6
313.15 K, w2 = 0.2505 | 0.173 | 1148 | 281.8
313.15 K, w2 = 0.298 | 0.127 | 1157.1 | 398.2
318.15 K, w2 = 0 | 0.827 | 1085.3 | 44.79
318.15 K, w2 = 0.0486 | 0.592 | 1098.8 | 59.5
318.15 K, w2 = 0.1019 | 0.469 | 1112.8 | 82.2
318.15 K, w2 = 0.1471 | 0.362 | 1123.2 | 109.1
318.15 K, w2 = 0.2029 | 0.29 | 1135.7 | 150.9
318.15 K, w2 = 0.2505 | 0.233 | 1144.8 | 199.2
318.15 K, w2 = 0.298 | 0.176 | 1153.9 | 273.8
323.15 K, w2 = 0 | 0.986 | 1082.3 | 36.23
323.15 K, w2 = 0.0486 | 0.718 | 1095.8 | 47.16
323.15 K, w2 = 0.1019 | 0.579 | 1109.9 | 63.79
323.15 K, w2 = 0.1471 | 0.456 | 1120.2 | 82.98
323.15 K, w2 = 0.2029 | 0.371 | 1132.7 | 112.2
323.15 K, w2 = 0.2505 | 0.304 | 1141.7 | 145.2
323.15 K, w2 = 0.298 | 0.233 | 1150.8 | 194.8
328.15 K, w2 = 0 | – | 1079.3 | 29.78
328.15 K, w2 = 0.0486 | – | 1092.9 | 38.06
328.15 K, w2 = 0.1019 | – | 1106.9 | 50.53
328.15 K, w2 = 0.1471 | – | 1117.1 | 64.55
328.15 K, w2 = 0.2029 | – | 1129.6 | 85.56
328.15 K, w2 = 0.2505 | – | 1138.7 | 108.7
328.15 K, w2 = 0.298 | – | 1147.8 | 142.7
333.15 K, w2 = 0 | – | 1076.2 | 24.82
333.15 K, w2 = 0.0486 | – | 1089.9 | 31.2
333.15 K, w2 = 0.1019 | – | 1103.9 | 40.73
333.15 K, w2 = 0.1471 | – | 1114.1 | 51.22
333.15 K, w2 = 0.2029 | – | 1126.6 | 66.66
333.15 K, w2 = 0.2505 | – | 1135.7 | 83.31
333.15 K, w2 = 0.298 | – | 1144.7 | 107.3
338.15 K, w2 = 0 | – | 1073.3 | 20.95
338.15 K, w2 = 0.0486 | – | 1086.9 | 25.94
338.15 K, w2 = 0.1019 | – | 1100.9 | 33.34
338.15 K, w2 = 0.1471 | – | 1111.1 | 41.34
338.15 K, w2 = 0.2029 | – | 1123.6 | 52.92
338.15 K, w2 = 0.2505 | – | 1132.7 | 65.2
338.15 K, w2 = 0.298 | – | 1141.7 | 82.59
343.15 K, w2 = 0 | – | 1070.3 | 17.88
343.15 K, w2 = 0.0486 | – | 1083.9 | 21.84
343.15 K, w2 = 0.1019 | – | 1097.9 | 27.67
343.15 K, w2 = 0.1471 | – | 1108.1 | 33.87
343.15 K, w2 = 0.2029 | – | 1120.5 | 42.75
343.15 K, w2 = 0.2505 | – | 1129.6 | 51.97
343.15 K, w2 = 0.298 | – | 1138.7 | 64.84
